Experimental findings from patent US9353089B2, “Compositions and methods for the treatment of malaria” (Saint Louis University, priority 2013, dated 2016) are described below.

Data set [1] has as its system HepG2 cells. The data set is described as follows: HepG2 cytotoxicity assay. Type of data set: cell-based. The note with it: Homo sapiens, 72 hours. As to the method:
HepG2 cells (ATCC Cat. No. HB-8065) were maintained in DMEM supplemented with 10% fetal bovine serum and L-glutamine. Cells were grown at 37° C. and 5% CO2 on flasks coated with poly-d-lysine. To assess compounds for potential cytotoxic properties cells were plated at 10,000 cells per well on 96-well poly-d-lysine plates at 10,000 cells per well. HepG2 cells were allowed to adhere for at least 4 hours prior to application of test compounds. Cells were incubated with test compounds for 72 hours before measuring cellular viability. Cellular viability was measured using PrestoBlue® Cell Viability Reagent (Life Technologies). Briefly, 11 μL of 10× PrestoBlue reagent was added to 100 μl in each assay well. Cells were incubated at 37° C. and 5% CO2 for 30 minutes prior to reading on Tecan Safire2, excitation at 560 nm, 10 nm bandwidth and emission at 590 nm, 10 nm bandwidth. GraphPad Prism 5.0 (GraphPad Software, Inc., USA) was used to generate IC50 values via non-linear regression analysis.

Data set [2] concerns the target recombinant human BACE1 (Homo sapiens, UniProt P56817). The experiment in a line: β-Secretase (BACE1) enzyme inhibition FRET assay. It is filed as biochemical. A digest of the protocol:
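FRET cleavage by rhBACE1 with substrate at 20 μM final, 60 min at room temperature. Time-resolved fluorescence read at Ex/Em 360/460 nm. IC50 obtained by non-linear regression.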

For data set [3], the target named is Plasmepsin (PM-4; Plm IV) (Plasmodium falciparum (isolate 3D7), UniProt Q8IM16). The experiment in a line: Plasmepsin-4 enzyme inhibition assay. Type of data set: biochemical. Particulars: Table 8. As to the method: Plasmepsin-2 (PM-2; Plm II) and Plasmepsin (PM-4; Plm IV) expression and purification was performed following the published protocols (Istvan E S and Goldberg D E, 2005). The final purified protein was activated by diluting the protein to 0.3 mg/mL in activating buffer (0.1 M citrate pH 4.5, 0.1% Tween-20, 50 mM dithiothreitol) and incubated at room temperature for 40 min, then the activated enzyme was diluted in assay buffer (50 mM sodium acetate pH 4.7, 0.01% Tween-20). The enzymatic inhibition reaction was performed in 384 well plates with a total volume of 20 μl. 10 μl of diluted PM-2 or PM-4 enzyme was added to the 384-well plate except blank wells (blank wells add 10 μL of assay buffer) and 20 nL of serials of diluted 1000× compounds were added to the wells with 520 Echo® Liquid Handling System (Labcyte Inc.). 10 μL PM-2 peptide substrate (AnaSpec, Cat#, 62050) with assay buffer was then added to final concentration of 20 μM to start the reaction. After incubation the reaction at room temperature for 60 min, the fluorescence intensity at Ex/Em=360 nm/535 nm was measured using EnVision multilabel plate reader (Perkin-Elmer). The IC50 values were obtained using Graph Pad Prism 4 and are reported in Tables 8 and 9 below as PM-2 IC50 values.
Chain of Plasmepsin (PM-4; Plm IV) (Q8IM16 122-449 limits assumed): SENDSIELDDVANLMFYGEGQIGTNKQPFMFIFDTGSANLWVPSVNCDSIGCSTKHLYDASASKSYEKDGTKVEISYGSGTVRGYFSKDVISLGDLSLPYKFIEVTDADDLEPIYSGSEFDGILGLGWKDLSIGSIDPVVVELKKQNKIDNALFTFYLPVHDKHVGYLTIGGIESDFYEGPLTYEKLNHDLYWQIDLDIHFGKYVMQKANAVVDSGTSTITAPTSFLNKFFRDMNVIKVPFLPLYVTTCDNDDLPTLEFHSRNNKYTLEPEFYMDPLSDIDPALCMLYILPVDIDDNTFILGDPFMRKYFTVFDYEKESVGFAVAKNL

Data set [4] in a line: Human Plasma Protein Binding (hPPB) assay. It is filed as in vitro ADME. The note with it: rapid equilibrium dialysis. As to the method: Human Plasma Protein Binding (hPPB) of test compounds was measured by rapid equilibrium dialysis device using the RED Device Inserts. In the reaction of 5 h, the drug concentration of the sample chamber and buffer chamber can be determined, through which we can calculated hPPB of test compounds. RED Device Inserts and Single-Use RED Base Plate were purchased from the Linden Bioscience, Woburn, Mass. (Taiwan, Thermo scientific). […]. Pooled human plasma from healthy individuals in this study was obtained from the Southern Medical University (China) and was stored frozen at −20° C. until use. SHZ-88A Reciprocating thermostatic oscillator was purchased from Taicang City Experimental Equipment Co. (China). Chlorpromazine (>99% in purity, positive control) and Phenacetin (>99% in purity, internal standard, IS) were all purchased from the Sigma Chemical Co. (China). Chlorpromazine HCl was used as a positive control. An aliquot ([…]) of plasma was accurately added into the sample chamber, and 6 μL compounds solution (500 μM, 50% DMSO) was added (n=3). An aliquot (500 μL) of Dulbecco solution was added into the buffer chamber. These solution were all oscillated for 5 hours (37° C., 90 rpm). Then, 50 μL solution in sample chamber was removed, 50 μL Dulbecco solution was added, and mixed. Also, 50 μL solution in buffer chamber was removed, 50 μL plasma was added, and mixed. 200 μL ACN (including internal Standard, 100 ng/mL) were added separately, oscillated, mixed, and centrifuged (20 min, 15000 g). An aliquot (50 μL) of the supernatant was accurately transferred to a clean 1.5 mL test tube and 100 μL H2O was added, mixed. 10 μL of mixture was separately injected into LC-MS system for determination of the drug concentration in the sample chamber and buffer chamber. The data were analyzed using the following equation: % hPPB=[1−(Concentrationbuffer chamber/Concentrationplasma chamber)]*100% (Barre, et al., 1985, which is incorporated herein by reference).

Like-named read-outs stand apart in the source and are kept apart here.

Chain of recombinant human BACE1 (P56817 46-501 limits assumed): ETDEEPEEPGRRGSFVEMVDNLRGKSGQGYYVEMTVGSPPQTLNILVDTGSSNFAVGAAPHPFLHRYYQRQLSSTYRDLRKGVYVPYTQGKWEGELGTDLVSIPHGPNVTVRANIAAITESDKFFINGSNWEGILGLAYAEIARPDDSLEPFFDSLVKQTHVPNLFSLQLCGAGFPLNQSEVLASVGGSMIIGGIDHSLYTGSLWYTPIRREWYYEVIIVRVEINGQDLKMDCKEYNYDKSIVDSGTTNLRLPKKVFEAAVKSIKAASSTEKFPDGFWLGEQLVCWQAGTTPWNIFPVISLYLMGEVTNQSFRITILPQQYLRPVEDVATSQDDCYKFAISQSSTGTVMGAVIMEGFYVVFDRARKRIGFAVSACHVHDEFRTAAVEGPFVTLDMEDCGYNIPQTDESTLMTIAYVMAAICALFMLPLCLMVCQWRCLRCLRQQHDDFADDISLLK

In the case of `COc1ccc(C2(c3ccc(OC)cc3)NC(=N)N(C3CCOCC3)C2=O)cc1` [Example 176, 2-imino-5,5-bis(4-methoxyphenyl)-3-(oxan-4-yl)-imidazolidin-4-one], the IC50 in data set [1] was more than 50 µM; in data set [2] (Table 8, read-out: BACE IC50) it was approximately 10 µM; in data set [2] (Table 13, read-out: BACE1 IC50), approximately 10.1 µM; in data set [3], 0.018 µM. In data set [4], the “hPPB (%)” value worked out at 78.1%.
Consider `COc1ccc(C2(c3ccc(OC)cc3)NC(=N)N(C3CCN(C(=O)OC(C)(C)C)CC3)C2=O)cc1` [Example 206, tert-butyl 4-[2-imino-4,4-bis(4-methoxyphenyl)-5-oxoimidazolidin-1-yl]piperidine-1-carboxylate], for which the IC50 in data set [1] was found to be 8 µM; in data set [2] (Table 8, read-out: BACE IC50), 6.01 µM; in data set [3], 0.01 µM. The “hPPB (%)” value in data set [4] was 99.7%.
Take `COc1ccc(C2(c3ccc(OC)cc3)NC(=N)N(CC3CCOCC3)C2=O)cc1` [Example 275, 2-imino-5,5-bis(4-methoxyphenyl)-3-(oxan-4-ylmethyl)imidazolidin-4-one]: the IC50 in data set [1] came out at 30 µM; in data set [2] (Table 8, read-out: BACE IC50), 2.07 µM; in data set [2] (Table 13, read-out: BACE1 IC50) it was 2.07 µM; in data set [3], 0.059 µM. Besides, in data set [4], the “hPPB (%)” value came out at 88.7%.
